This assay deals with PE13 passaged human breast tumor cells. Put plainly: Xenograft tumor growth after gamma secretase inhibition. The class given is in vivo. The procedure:
A) The average tumor volume from L-685-458 treated (n=5) versus control (n=7) animals is plotted for each day measured over 37 days. B) The tumor volume of individual L-685-458 treated and control mice is plotted for each day measured.
In alternative embodiments, gamma secretase activity was decreased using the small-molecule inhibitor L-685,458 (Yan et al., 2004, J. Neurosci. 24:2942) and the effect on tumor growth was assessed in a xenograft model. 20,000 PE13 passaged human breast tumor cells were injected into the mammary fat pads of NOD/SCID mice. The mice were then injected subcutaneously daily with 9 mg/kg L-685,458 (n=5) or vehicle control (n=7) for 25 days. Starting on day 11, the tumor volume was measured three times a week for a total of 48 days. […] The tumor volumes for individual mice are plotted in FIG. 13B. Thus inhibiting gamma secretase activity by using a small molecule gamma secretase inhibitor predicted to reduce Notch signaling reduced tumor growth.

Molecules are shown by their SMILES.

As to `CC(C)C[C@H](NC(=O)[C@H](Cc1ccccc1)C[C@@H](O)[C@H](Cc1ccccc1)NC(=O)OC(C)(C)C)C(=O)N[C@@H](Cc1ccccc1)C(N)=O` [L-685,458], where the note is “20,000 PE13 cells in mammary fat pads of NOD/SCID mice, 9 mg/kg subcutaneously daily for 25 days (n=5) vs vehicle control (n=7)”, the “growth of injected tumor cells” value is reported as “significantly inhibited the growth of injected tumor cells”. Moreover, the average tumor volume entry (NOD/SCID mice, 9 mg/kg s.c. daily for 25 days, measured three times a week from day 11, total 48 days, vs vehicle control) is recorded as “reduced compared to control animals throughout the study”.

For the origin of these results see patent US7939263B2, “Compositions and methods for treating and diagnosing cancer” (The Regents of the University of Michigan, priority 2005, dated 2011).
